For eight molecules, IC50 results are on record in patent publication US20130040935A1, “CYCLIC KETO-ENOLS FOR THERAPY” (BAYER INTELLECTUAL PROPERTY GMBH, priority 2010, published 2013).

Read-outs that look alike come from different tables or passages of the source.

In one test the target is recombinant human ACC1 (Homo sapiens, UniProt Q13085). The test is described as follows: Human ACC1 enzyme assay, Assay A1 (HTRF ADP immunoassay).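 Note: ADP generated by the enzyme quantified via competitive time-resolved FRET, read as europium cryptate to d2 energy transfer after 1 h at 22 °C with labelled ADP tracer and anti-ADP antibody.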
The target of test [1] is human ACC2 (acetyl-coenzyme A carboxylase 2) (Homo sapiens, UniProt O00763). Kind of test: Human ACC2 enzyme assay, Assay B2 (ADP-Glo).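 Note: human ACC2 activity read as ADP product, detected by luciferase glow luminescence after residual ATP removal, enzyme near 2 ng/µl in linear range, detection steps at 22 °C.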 For orientation: ADP-Glo first removes unused ATP, then detects ADP through luciferase.
Sequence of human ACC2 (acetyl-coenzyme A carboxylase 2) (O00763 27-2458 limits assumed): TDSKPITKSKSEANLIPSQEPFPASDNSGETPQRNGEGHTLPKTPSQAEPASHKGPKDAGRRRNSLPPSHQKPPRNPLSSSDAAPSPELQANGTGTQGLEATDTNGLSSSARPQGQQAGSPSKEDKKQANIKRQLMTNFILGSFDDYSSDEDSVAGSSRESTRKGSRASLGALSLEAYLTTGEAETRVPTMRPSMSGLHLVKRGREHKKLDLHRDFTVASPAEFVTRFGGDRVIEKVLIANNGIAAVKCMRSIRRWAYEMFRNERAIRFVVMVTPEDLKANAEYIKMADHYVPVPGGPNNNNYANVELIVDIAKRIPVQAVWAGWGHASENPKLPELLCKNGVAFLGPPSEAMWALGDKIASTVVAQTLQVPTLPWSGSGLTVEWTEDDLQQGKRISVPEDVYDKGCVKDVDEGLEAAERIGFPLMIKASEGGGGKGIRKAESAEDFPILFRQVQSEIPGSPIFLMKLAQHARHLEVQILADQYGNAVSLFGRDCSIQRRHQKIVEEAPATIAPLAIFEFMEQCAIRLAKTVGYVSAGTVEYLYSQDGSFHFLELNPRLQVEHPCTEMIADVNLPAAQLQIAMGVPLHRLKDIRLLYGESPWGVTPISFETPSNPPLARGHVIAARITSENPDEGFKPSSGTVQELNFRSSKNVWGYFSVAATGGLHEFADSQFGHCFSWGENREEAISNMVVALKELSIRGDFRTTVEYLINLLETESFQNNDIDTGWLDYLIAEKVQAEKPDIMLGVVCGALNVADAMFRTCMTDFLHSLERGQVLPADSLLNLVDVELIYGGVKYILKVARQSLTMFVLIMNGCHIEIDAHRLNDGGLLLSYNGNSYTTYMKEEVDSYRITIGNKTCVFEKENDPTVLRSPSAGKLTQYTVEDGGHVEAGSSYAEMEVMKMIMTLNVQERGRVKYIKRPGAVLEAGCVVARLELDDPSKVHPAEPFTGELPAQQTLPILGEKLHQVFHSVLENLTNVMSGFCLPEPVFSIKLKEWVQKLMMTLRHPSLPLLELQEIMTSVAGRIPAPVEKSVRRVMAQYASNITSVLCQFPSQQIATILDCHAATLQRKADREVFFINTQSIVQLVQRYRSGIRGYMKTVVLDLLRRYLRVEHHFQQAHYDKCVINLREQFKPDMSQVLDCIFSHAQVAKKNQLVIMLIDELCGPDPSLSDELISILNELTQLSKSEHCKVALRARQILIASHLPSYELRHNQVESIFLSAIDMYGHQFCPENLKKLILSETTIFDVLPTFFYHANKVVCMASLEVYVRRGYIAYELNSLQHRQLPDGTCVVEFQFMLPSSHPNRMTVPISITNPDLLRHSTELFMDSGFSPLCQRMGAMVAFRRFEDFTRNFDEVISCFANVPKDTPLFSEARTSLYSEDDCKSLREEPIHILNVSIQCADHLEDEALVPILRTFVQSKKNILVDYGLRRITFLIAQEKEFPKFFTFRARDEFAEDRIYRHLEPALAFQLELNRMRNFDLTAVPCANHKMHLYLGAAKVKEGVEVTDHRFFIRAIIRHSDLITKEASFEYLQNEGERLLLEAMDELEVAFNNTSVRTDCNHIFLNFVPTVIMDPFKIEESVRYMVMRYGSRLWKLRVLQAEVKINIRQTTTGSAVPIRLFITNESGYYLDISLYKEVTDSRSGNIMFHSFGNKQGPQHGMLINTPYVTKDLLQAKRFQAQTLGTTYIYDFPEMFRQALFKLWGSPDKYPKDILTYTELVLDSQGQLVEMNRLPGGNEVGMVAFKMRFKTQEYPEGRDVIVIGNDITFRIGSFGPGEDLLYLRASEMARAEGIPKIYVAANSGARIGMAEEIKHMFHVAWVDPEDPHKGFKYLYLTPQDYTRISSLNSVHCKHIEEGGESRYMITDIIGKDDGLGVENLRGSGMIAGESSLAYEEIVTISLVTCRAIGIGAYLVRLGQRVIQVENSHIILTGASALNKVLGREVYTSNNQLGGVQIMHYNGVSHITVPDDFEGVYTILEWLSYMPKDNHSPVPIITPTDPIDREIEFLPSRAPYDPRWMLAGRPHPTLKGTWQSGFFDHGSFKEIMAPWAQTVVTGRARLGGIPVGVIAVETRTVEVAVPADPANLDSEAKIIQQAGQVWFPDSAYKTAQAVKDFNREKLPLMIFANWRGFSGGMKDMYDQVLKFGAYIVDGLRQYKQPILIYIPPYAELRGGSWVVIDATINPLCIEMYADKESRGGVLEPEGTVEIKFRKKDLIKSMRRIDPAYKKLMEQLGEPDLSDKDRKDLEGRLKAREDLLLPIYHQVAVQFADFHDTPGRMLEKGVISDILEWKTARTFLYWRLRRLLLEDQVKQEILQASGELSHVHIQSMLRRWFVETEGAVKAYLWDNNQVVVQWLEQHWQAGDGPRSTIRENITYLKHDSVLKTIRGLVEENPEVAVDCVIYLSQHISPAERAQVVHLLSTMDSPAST
The next test relates to MCF7. Kind of test: Cell proliferation assay (CellTiter-Glo, 96 h), MCF7. Type of test: cell-based. As to conditions: Homo sapiens, MCF7; Table 7; 96-hour incubation. The procedure, abridged: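 Seeding: 2000-5000 cells/well; overnight, 37° C. Separate t=0 plate read. Compound diluted in growth medium, 96 h, 37° C. Readout: CellTiter-Glo luminescence, t=0 subtracted; % growth inhibition vs control.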

In test [2] the target is acetyl-CoA carboxylase 2 (ACC2) (Homo sapiens, UniProt O00763). The test is described as follows: Human ACC2 enzyme assay, Assay A2 (HTRF ADP immunoassay).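 Note: ADP generated by ACC2 quantified via competitive time-resolved FRET between europium cryptate anti-ADP antibody and d2-tagged ADP, enzyme kept in linear range near 0.6 ng/µl.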 In general terms: Time-resolved FRET reads energy transfer from a long-lived donor to a nearby acceptor.
Sequence of acetyl-CoA carboxylase 2 (ACC2) (O00763 39-2458 limits assumed): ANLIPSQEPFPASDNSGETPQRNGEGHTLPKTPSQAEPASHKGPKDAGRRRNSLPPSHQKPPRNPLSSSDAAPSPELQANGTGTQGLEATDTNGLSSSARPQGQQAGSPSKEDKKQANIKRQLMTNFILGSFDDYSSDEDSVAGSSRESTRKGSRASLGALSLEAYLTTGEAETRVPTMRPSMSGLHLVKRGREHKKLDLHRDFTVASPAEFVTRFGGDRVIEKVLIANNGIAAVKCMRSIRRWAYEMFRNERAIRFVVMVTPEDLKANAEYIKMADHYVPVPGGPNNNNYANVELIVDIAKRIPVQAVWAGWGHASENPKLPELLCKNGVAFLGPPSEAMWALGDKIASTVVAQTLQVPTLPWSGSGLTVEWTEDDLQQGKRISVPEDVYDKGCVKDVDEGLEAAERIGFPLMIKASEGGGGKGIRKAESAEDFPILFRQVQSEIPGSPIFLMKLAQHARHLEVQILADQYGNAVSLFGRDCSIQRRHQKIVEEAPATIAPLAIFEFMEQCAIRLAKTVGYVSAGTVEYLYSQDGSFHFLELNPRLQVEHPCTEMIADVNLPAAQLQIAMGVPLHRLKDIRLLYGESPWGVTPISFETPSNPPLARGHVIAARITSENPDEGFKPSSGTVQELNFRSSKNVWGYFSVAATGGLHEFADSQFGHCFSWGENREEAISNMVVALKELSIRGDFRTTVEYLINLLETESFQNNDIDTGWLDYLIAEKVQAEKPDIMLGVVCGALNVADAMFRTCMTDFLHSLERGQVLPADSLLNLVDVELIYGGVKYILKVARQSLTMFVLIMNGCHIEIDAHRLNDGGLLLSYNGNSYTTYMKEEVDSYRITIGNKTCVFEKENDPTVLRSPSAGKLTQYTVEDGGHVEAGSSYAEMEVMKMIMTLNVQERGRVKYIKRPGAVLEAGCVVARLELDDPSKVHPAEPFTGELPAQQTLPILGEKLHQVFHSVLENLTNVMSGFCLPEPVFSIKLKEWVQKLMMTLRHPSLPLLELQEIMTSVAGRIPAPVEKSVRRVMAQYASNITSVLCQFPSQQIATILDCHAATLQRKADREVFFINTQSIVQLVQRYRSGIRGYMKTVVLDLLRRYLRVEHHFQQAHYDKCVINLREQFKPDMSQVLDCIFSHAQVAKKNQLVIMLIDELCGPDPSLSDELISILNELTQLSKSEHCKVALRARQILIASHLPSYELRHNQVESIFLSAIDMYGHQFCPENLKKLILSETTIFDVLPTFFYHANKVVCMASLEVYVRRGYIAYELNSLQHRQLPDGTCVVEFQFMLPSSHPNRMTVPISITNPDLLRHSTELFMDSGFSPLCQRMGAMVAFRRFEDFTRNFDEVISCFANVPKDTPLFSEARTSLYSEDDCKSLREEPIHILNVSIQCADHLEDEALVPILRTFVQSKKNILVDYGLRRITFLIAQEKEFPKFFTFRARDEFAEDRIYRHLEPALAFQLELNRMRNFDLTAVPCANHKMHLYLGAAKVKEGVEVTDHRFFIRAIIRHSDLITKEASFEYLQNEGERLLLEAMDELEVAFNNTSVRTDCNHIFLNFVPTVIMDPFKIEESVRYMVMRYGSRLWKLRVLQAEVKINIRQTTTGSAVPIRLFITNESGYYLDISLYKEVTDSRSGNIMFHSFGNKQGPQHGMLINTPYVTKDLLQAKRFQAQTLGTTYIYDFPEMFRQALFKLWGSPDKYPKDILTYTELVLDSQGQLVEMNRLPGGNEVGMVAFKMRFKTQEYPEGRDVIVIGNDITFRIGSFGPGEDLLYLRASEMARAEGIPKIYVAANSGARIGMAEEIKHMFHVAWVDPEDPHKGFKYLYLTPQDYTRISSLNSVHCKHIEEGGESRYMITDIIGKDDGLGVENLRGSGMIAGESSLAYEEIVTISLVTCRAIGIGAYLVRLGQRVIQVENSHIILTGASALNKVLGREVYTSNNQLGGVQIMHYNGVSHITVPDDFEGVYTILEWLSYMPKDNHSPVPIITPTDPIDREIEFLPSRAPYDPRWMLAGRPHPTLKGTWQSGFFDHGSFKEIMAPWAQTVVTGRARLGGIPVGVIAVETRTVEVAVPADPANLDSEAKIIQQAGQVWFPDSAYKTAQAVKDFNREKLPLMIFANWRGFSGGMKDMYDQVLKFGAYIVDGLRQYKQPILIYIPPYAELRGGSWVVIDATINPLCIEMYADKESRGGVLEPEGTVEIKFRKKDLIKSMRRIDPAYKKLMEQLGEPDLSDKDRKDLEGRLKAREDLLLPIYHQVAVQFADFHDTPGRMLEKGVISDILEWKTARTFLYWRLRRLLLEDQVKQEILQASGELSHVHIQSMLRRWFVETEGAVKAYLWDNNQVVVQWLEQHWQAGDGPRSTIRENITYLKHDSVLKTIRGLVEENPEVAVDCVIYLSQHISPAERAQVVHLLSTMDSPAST
Procedure: The inhibitory activity of the substances of this invention with regard to acetyl-CoA carboxylase 2 (ACC2) was measured using the ACC2 assay described in the paragraphs below. The basic principle of the assay is the measurement of adenosine diphosphate (ADP), which is formed as a by-product, by means of an HTRF®-based competitive immunoassay (HTRF=Homogeneous Time Resolved Fluorescence).
The amount of complex of d2-labelled ADP and europium cryptate-labelled anti-ADP antibody was then determined by measuring the resonance energy transfer of europium cryptate to d2.
The target in test [3] is T1, human ACC1 (acetyl-coenzyme A carboxylase alpha transcript variant 1) (Homo sapiens, UniProt Q13085).
T1 construct: FLAG (C); made in house; host or cells: baculovirus-infected insect cells (Hi5)
Kind of test: Human ACC1 enzyme assay, Assay B1 (ADP-Glo). It counts as biochemical.

[4] abbreviates: Assay B1, read-out: ACC 1 (=B1) IC50.

Procedure for recombinant human ACC1: The inhibitory activity of the substances of this invention with regard to acetyl-CoA carboxylase 1 (ACC1) was measured using the ACC1 assay described in the paragraphs below. The basic principle of the assay is the measurement of adenosine diphosphate (ADP), which is formed as a by-product, by means of an HTRF®-based competitive immunoassay (HTRF=Homogeneous Time Resolved Fluorescence).
Typical concentrations were in the range of 2.5 ng/μl.
The amount of complex between d2-labelled ADP and europium cryptate-labelled anti-ADP antibody was then determined by measuring the resonance energy transfer from the europium cryptate to d2.

For `Cc1cc(F)c(-c2ccc(Cl)cc2)cc1C1=C(O)[C@]2(CC[C@](O)(C(F)(F)F)CC2)NC1=O` [1-127, (5r,8r)-3-(4′-Chloro-6-fluoro-4-methylbiphenyl-3-yl)-4,8-dihydroxy-8-(trifluoromethyl)-1-azaspiro[4.5]dec-3-en-2-one], the IC50 (usually the midpoint of a concentration-inhibition curve) amounted to 0.216 µM on recombinant human ACC1; 13.4 µM in test [1]; 1.4 µM in the test with MCF7; 4.84 µM in test [2]; 0.145 µM in test [3] (setting [4]).

For `Cc1ccc(-c2ccc(F)c(F)c2)cc1C1=C(O)[C@]2(CC[C@@H](C(F)(F)F)CC2)NC1=O` [1-129, (5r,8r)-3-(3′,4′-Difluoro-4-methylbiphenyl-3-yl)-4-hydroxy-8-(trifluoromethyl)-1-azaspiro[4.5]dec-3-en-2-one], the IC50 at recombinant human ACC1 was found to be 0.349 µM; in test [1] it was 10.6 µM; in the test on MCF7 it was 0.172 µM; in test [2] it was 9.61 µM; in test [3] (setting [4]), 0.267 µM.

In the case of `Cc1ccc(-c2ccc(Cl)c(F)c2)cc1C1=C(O)[C@]2(CC[C@](O)(C(F)(F)C(F)(F)F)CC2)NC1=O` [1-130, (5r,8r)-3-(4′-Chloro-3′-fluoro-4-methylbiphenyl-3-yl)-4,8-dihydroxy-8-(pentafluoroethyl)-1-azaspiro[4.5]dec-3-en-2-one], the IC50 amounted to 0.133 µM on recombinant human ACC1; 5.89 µM in test [1]; 0.061 µM with MCF7; 4.4 µM in test [2]; 0.108 µM in test [3] (setting [4]).

Turning to `Cc1cc(F)c(-c2ccc(Cl)cc2)cc1C1=C(O)[C@]2(CC[C@](O)(C(F)(F)C(F)(F)F)CC2)NC1=O` [1-131, (5r,8r)-3-(4′-Chloro-6-fluoro-4-methylbiphenyl-3-yl)-4,8-dihydroxy-8-(pentafluoroethyl)-1-azaspiro[4.5]dec-3-en-2-one], the IC50 on recombinant human ACC1 was determined as 0.266 µM; in test [1] it was 5.62 µM; with MCF7 it was 0.06 µM; in test [2] it was 7.62 µM; in test [3] (setting [4]) it was 0.098 µM.

`CO[C@H]1CC[C@]2(CC1)NC(=O)C(c1cc(-c3ccc(Cl)cc3)c(C)cc1C)=C2O` [1-132, (5s,8s)-3-(4′-Chloro-4,6-dimethylbiphenyl-3-yl)-4-hydroxy-8-methoxy-1-azaspiro[4.5]dec-3-en-2-one]: the concentration for half-maximal inhibition (IC50) at recombinant human ACC1 was 1.71 µM; in test [1], 0.234 µM; with MCF7, 0.07 µM; in test [2], 0.106 µM; in test [3], 0.912 µM.

In the case of `Cc1ccc(-c2ccc(Cl)cc2)cc1C1=C(O)[C@@]2(CCC[C@H](C(F)(F)F)C2)NC1=O` [1-133, (5S,7S)-3 (4′-Chloro-4 methylbiphenyl-3-yl)-4-hydroxy-7-(trifluoromethyl)-1-azaspiro[4.5]dec-3-en-2-one], the IC50 at recombinant human ACC1 was 0.329 µM; in test [1] it was 8.1 µM; in the test with MCF7, 0.075 µM; in test [2], 2.87 µM; in test [3] (setting [4]), 0.142 µM.

Regarding `O=C1N[C@]2(CC[C@@H](C(F)(F)F)CC2)C(O)=C1c1cc(-c2ccc(Cl)cc2)ccc1Cl` [1-134, (5s,8s)-3-(4,4′-Dichlorobiphenyl-3-yl)-4-hydroxy-8 (trifluoromethyl)-1-azaspiro[4.5]dec-3-en-2-one], the half-maximal inhibitory concentration (IC50) worked out at 0.299 µM on recombinant human ACC1; 2.85 µM in test [1]; 0.114 µM with MCF7; 1.31 µM in test [2]; 0.109 µM in test [3] (setting [4]).

As for `CO[C@H]1CC[C@]2(CC1)NC(=O)C(c1cc(-c3ccc(Cl)cc3)c(F)cc1C)=C2O` [1-135, (5s,8s)-3-(4′-Chloro 6 fluoro 4-methylbiphenyl-3-yl)-4-hydroxy-8-methoxy-1-azaspiro[4.5]dec-3-en-2-one], the IC50 worked out at 0.22 µM at recombinant human ACC1; 1.75 µM in test [1]; 0.171 µM in the test with MCF7; 0.657 µM in test [2]; 0.094 µM in test [3].
